Laboratory results as given in patent EP0523085B1, “PEROXY ACID BLEACH PRECURSORS AND DETERGENT COMPOSITIONS CONTAINING THEM” (priority 1990, dated 1991).
Like-named read-outs stand apart in the source and are kept apart here.

Tests used:
[1] = perhydrolysis with sodium perborate tetrahydrate at 10°C, iodometric titration; settings: for rates of perhydrolysis, comparison of the two precursors: each predissolved (KDAES in distilled water, TAED in dimethyl formamide); for time for dissolution and perhydrolysis to be substantially complete: precursor added in solid form, KDAES assumed to be 82% active
Description: A jacketed 1 litre glass vessel fitted with a magnetic stirrer was used to carry out the perhydrolysis and the temperature of the solution was controlled at 10°C by means of a Thermomix (RTM) cooling unit which was used to circulate the cooled water through a jacket around the perhydrolysis vessel
The value obtained for the blank was subtracted from the values obtained at the various time intervals to give the figure from which the percentage perhydrolysis was calculated.

[2] = water solubility at 10°C (saturated solution in distilled water); assay type: physicochemical
Description: For the purposes of the present invention the solubility of a precursor in water is defined as the weight of the compound that can be dissolved in 100ml distilled water at 10°C, expressed on a percentage basis. Precursors in accordance with the invention have water solubilities of at least 25% by weight, more preferably at least 50% and most preferably at least 75%.
The water solubility of this material was determined by cooling 2.3g distilled water to 10°C and adding the precursor until no further material would dissolve. A slight excess was then added and the temperature raised to 25°C to give complete solution before recooling to 10°C, ensuring that crystallisation of the precursor took place from a saturated solution.

**Q.** For `CC(=O)N(CCS(=O)(=O)[O-])C(C)=O.[K+]` [KDAES, potassium N,N-diacetylaminoethane sulphonate], which “rates of perhydrolysis, comparison of the two precursors” value [1] is on record?
**A.** broadly similar

**Q.** What about the “time for dissolution and perhydrolysis to be substantially complete” value [1] of the same compound?
**A.** ≤ 5 min

**Q.** And the solubility ([2]; distilled water, 10°C)?
**A.** 66.6%

**Q.** And the “amount of the precursor dissolved” value ([2]; in 2.3g distilled water at 10°C)?
**A.** 4.71 g

**Q.** For `CC(=O)N(CCC[N+](C)(C)C)C(C)=O.[Br-]` [DTAPB, N,N-diacetyl trimethylammonio propylamine bromide], which “precursor perhydrolysed within 5 minutes” value ([1]; solid product, on the basis of a purity of 97.6%) is on record?
**A.** approx. 92%

**Q.** And the solubility [2]?
**A.** 75.6%

**Q.** Which “rates of perhydrolysis, comparison of the two precursors” value [1] does the source give for “tetra acetyl ethylene diamine [TAED, reference compound]” here?
**A.** broadly similar

**Q.** What about the “time for dissolution and perhydrolysis to be substantially complete” value [1] of the same compound?
**A.** at least 30 minutes
